Laboratory results taken from US20050288347A1, “Certain triazole-based compounds, compositions, and uses thereof” (priority 2004, published 2005).
Entries after “also recorded” stand apart in the source; their conditions may differ.

Target: protein kinase
Experiment: HTS ATP-utilizing enzyme assay, off-chip mobility-shift format (Caliper HTS 250)
Type: biochemical, human
Details: test compound 10 μM; for Kinase: kinase(s) for which the compound exhibits protein kinase inhibitory activity, active = greater than three-sigma from the mean activity of inactive compounds; for protein kinase against which the compound exhibits inhibitory activity (Table 3): active = activity greater than three-sigma from the mean of the predominately inactive population for that enzyme
Summary of the method: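 Single-point screen at 10 μM compound in HEPES pH 7.5 buffer with Triton X-100 and BSA, 2.5 h at 20–22 °C. Substrate-to-phosphopeptide ratio measured by off-chip microfluidic mobility shift; EDTA wells as 100% and DMSO wells as 0% control, hits called at three-sigma limits.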

| SMILES | Kinase | protein kinase against which the compound exhibits inhibitory activity (Table 3) |
| --- | --- | --- |
| COc1ccc(-n2c(SCC(=O)O)nnc2-c2ccc(NS(=O)(=O)c3ccc(C)cc3)cc2)cc1 | CDK2-cyclinA and CDK2-cyclinE and CDK1 |  |
| CCn1c(COc2ccc(Cl)c(C)c2)nnc1SC(C)C |  | AKT1 |
| O=C(CSc1nnc(-c2cccc(C(F)(F)F)c2)[nH]1)c1ccc2c(c1)OCCO2 | AURORA-A; also recorded: GSK3-α; also recorded: FLT-3 |  |
| Cc1ccc(-n2c(SCC(=O)NNC(=O)c3ccccc3O)nnc2-c2ccccc2O)cc1 |  | AURORA-A |
| COc1ccccc1-n1c(SCC(N)=O)nnc1-c1ccccc1O | AURORA-A |  |
| Cn1c(CNc2ccc(F)cc2)nnc1SCCN1CCOCC1 |  | PDGFRR-α |
| COc1ccc(NCc2nnc(SCCCC3CCCCC3)n2C)cc1 |  | PDGFRR-α and FYN and FLT-3 |
| O=C1c2ccccc2C(=O)N1CCSc1nnc(-c2cccc(C(F)(F)F)c2)[nH]1 |  | GSK3-β and PKA and GSK3-α |
| CCOC(=O)CN(C(=O)CSc1nnc(-c2ccncc2)n1-c1ccccc1)c1ccccc1 | PDGFRR-α |  |
| COc1ccc(-c2nnc(SCc3ccncc3)[nH]2)cc1 [4-((5-(4-methoxyphenyl)-4H-1,2,4-triazol-3-ylthio)methyl)pyridine] |  | FLT-3; also recorded: DYRK2; also recorded: GSK3-α |
| Cc1ccc(-n2c(S)nnc2CNc2cccc(Cl)c2)cc1 [5-((3-chlorophenylamino)methyl)-4-p-tolyl-4H-1,2,4-triazole-3-thiol] | GSK3-β; also recorded: GSK3-α |  |
| CC(C)Sc1nnc(-c2ccc(NS(C)(=O)=O)cc2)n1C |  | CDK2-cyclinA |
| Cn1c(SCc2ccc(C(C)(C)C)cc2)nnc1-c1cccnc1 [3-(5-(4-tert-butylbenzylthio)-4-methyl-4H-1,2,4-triazol-3-yl)pyridine] |  | PDGFRR-α |
| COCCn1c(SCC(=O)N2c3ccccc3Sc3ccccc32)nnc1-c1cc2ccccc2cc1O | DAPK1 |  |
| c1ccc(OCc2nnc(SCC3CC3)[nH]2)cc1 [3-(cyclopropylmethylthio)-5-(phenoxymethyl)-4H-1,2,4-triazole] |  | GSK3-α; also recorded: GSK3-β; also recorded: AURORA-A |
| CCOCCSc1nnc(-c2cccs2)[nH]1 [3-(2-ethoxyethylthio)-5-(thiophen-2-yl)-4H-1,2,4-triazole] |  | AURORA-A; also recorded: DYRK2; also recorded: GSK3-β |
| c1ccc(CSc2nnc(CCC3CCCC3)n2Cc2cccnc2)cc1 |  | GSK3-α |
| Cc1ccc(NCc2nnc(SCc3nnc(-c4ccccc4)o3)n2CC2CCCO2)c(C)c1 (stereo not shown) |  | SYK |
| COc1ccc(NCc2nnc(SCC(=O)Nc3cccc(O)c3)n2-c2ccccc2OC)cc1 | CHEK2; also recorded: PDGFRR-α; also recorded: AURORA-A |  |
| CCN(CC)C(=O)CSc1nnc(-c2ccc(S(=O)(=O)N3CCCCCC3)cc2)n1CC | AURORA-A |  |
| CS(=O)(=O)c1ccc(CSc2nnc(-c3ccc(Cl)c(Cl)c3)[nH]2)cc1 [3-(3,4-dichlorophenyl)-5-(4-(methylsulfonyl)benzylthio)-4H-1,2,4-triazole] |  | AURORA-A; also recorded: FLT-3 |

| SMILES | Kinase | protein kinase against which the compound exhibits inhibitory activity (Table 3) |
| --- | --- | --- |
| COc1ccccc1OCc1nnc(S)n1Cc1ccco1 | AURORA-A; also recorded: GSK3-β; also recorded: GSK3-α |  |
| CCSc1nnc(-c2ccncc2)n1CCCOC [4-(5-(ethylthio)-4-(3-methoxypropyl)-4H-1,2,4-triazol-3-yl)pyridine] |  | AURORA-A |
| FC(F)(F)Oc1ccc(-c2nnc(SCc3ccncc3)[nH]2)cc1 [4-((5-(4-(trifluoromethoxy)phenyl)-4H-1,2,4-triazol-3-ylthio)methyl)pyridine] |  | FLT-3; also recorded: c-TAK1; also recorded: GSK3-β |
| FC(F)Oc1ccccc1CSc1nnc(-c2cc(-c3ccccc3)nc3ccccc23)n1Cc1ccco1 |  | c-TAK1 |
| Sc1nnc(C2CCCCC2)n1-c1cccc(Cl)c1 [4-(3-chlorophenyl)-5-cyclohexyl-4H-1,2,4-triazole-3-thiol] | AURORA-A |  |
| Cc1csc(NC(=O)CSc2nnc(-c3cccnc3)n2C)n1 | PAK2 |  |
| Cn1c(CCc2nc3ccccc3[nH]2)nnc1SCCN1CCCCC1 |  | AURORA-A |
| COCCn1c(S)nnc1-c1cc2ccccc2cc1O [3-(5-mercapto-4-(2-methoxyethyl)-4H-1,2,4-triazol-3-yl)naphthalen-2-ol] | AURORA-A |  |
| N#CCSc1nnc(-c2ccccc2)[nH]1 [2-(5-phenyl-4H-1,2,4-triazol-3-ylthio)acetonitrile] | DYRK2; also recorded: FLT-3; also recorded: AURORA-A |  |
| COc1ccccc1-n1c(SCC#N)nnc1-c1ccccc1O | AURORA-A |  |
| CCn1c(SCC(=O)N2CCCC2)nnc1-c1ccc(S(=O)(=O)N2CCCCCC2)cc1 | AURORA-A |  |
| CN(C)CCCSc1nnc(-c2cccc(C(F)(F)F)c2)[nH]1 |  | CHEK2; also recorded: c-TAK1; also recorded: GSK3-β |
| COc1ccc(-c2nnc(SCc3cccc(I)c3)[nH]2)cc1 [3-(3-iodobenzylthio)-5-(4-methoxyphenyl)-4H-1,2,4-triazole] |  | AURORA-A |
| COc1ccccc1-n1c(SCc2ccc(F)c(F)c2)nnc1-c1cccc(Cl)c1 |  | ROCK2 |
| CCC(c1ccccc1)c1nnc(SCc2cccc3ccccc23)[nH]1 (stereo not shown) [3-(naphthalen-1-ylmethylthio)-5-(1-phenylpropyl)-4H-1,2,4-triazole] |  | AURORA-A |
| COc1ccc(NCc2nnc(SCC(=O)N(c3ccccc3)c3ccccc3)n2-c2ccccc2)cc1 | CHEK2; also recorded: PDGFRR-α; also recorded: FYN α |  |
| O=C(CSc1nnc(-c2ccco2)[nH]1)c1ccc(O)c(O)c1 [1-(3,4-dihydroxyphenyl)-2-(5-(furan-2-yl)-4H-1,2,4-triazol-3-ylthio)ethanone] | FYN and PDGFRR-α and FLT-3 |  |
| COc1ccccc1-n1c(SCc2csc(C)n2)nnc1-c1cccc(Cl)c1 |  | ROCK2 |
| Nc1c(Cl)cc(-n2c(S)nnc2-c2ccccc2)cc1Cl [4-(4-amino-3,5-dichlorophenyl)-5-phenyl-4H-1,2,4-triazole-3-thiol] | GSK3-β; also recorded: GSK3-α; also recorded: CDK2-cyclinE |  |
| O=C(O)CSc1nnc(-c2ccc(OC(F)(F)F)cc2)[nH]1 [2-(5-(4-(trifluoromethoxy)phenyl)-4H-1,2,4-triazol-3-ylthio)acetic acid] | GSK3-β; also recorded: GSK3-α; also recorded: DYRK2 |  |
| COc1ccc(-c2nnc(SCc3cccnc3)[nH]2)cc1 [3-((5-(4-methoxyphenyl)-4H-1,2,4-triazol-3-ylthio)methyl)pyridine] |  | AURORA-A; also recorded: FLT-3; also recorded: DYRK2 |

Now from value to compound:

| Kinase | protein kinase against which the compound exhibits inhibitory activity (Table 3) | SMILES |
| --- | --- | --- |
| PDGFRR-α and FYN and c-TAK1 |  | COc1ccc(NCc2nnc(SCC(=O)Nc3ccc(C(C)=O)cc3)n2-c2ccc(OC)cc2)cc1 |
| AURORA-A |  | CCOc1ccc(NCc2nnc(S)n2-c2ccc(C)cc2)cc1 [5-((4-ethoxyphenylamino)methyl)-4-p-tolyl-4H-1,2,4-triazole-3-thiol] |
| AKT1 |  | CCn1c(COc2ccccc2)nnc1SCC(=O)Nc1sc2c(c1C#N)CCCC2 |
|  | FLT-3 | Clc1ccc(OCc2nnc(SCc3cccnc3)[nH]2)cc1 [3-((5-((4-chlorophenoxy)methyl)-4H-1,2,4-triazol-3-ylthio)methyl)pyridine] |
| FYN and PDGFRR-α and FLT-3 |  | COc1ccc(NCc2nnc(SCC(=O)Nc3ccccc3)n2-c2ccc(C)cc2)cc1 |
| AURORA-A |  | COC(=O)c1ccccc1NC(=O)CSc1nnc(CNc2cccc(Cl)c2)n1C |
| PDGFRR-α and FYN |  | COc1ccc(NCc2nnc(SCC(N)=O)n2C)cc1 |
|  | c-TAK1 and CDK1 | CCn1c(COc2cccc3ccccc23)nnc1SCC(C)C [4-ethyl-3-(isobutylthio)-5-((naphthalen-1-yloxy)methyl)-4H-1,2,4-triazole] |
|  | AURORA-A | Cc1cc(OCc2nnc(SCCC(=O)O)n2C)ccc1Cl |
|  | GSK3a | Cn1c(COc2ccccc2)nnc1SCc1cc(=O)[nH]c2ccccc12 |
| AURORA-A |  | Sc1nnc(CNc2ccc(Cl)cc2)n1Cc1ccccc1 [4-benzyl-5-((4-chlorophenylamino)methyl)-4H-1,2,4-triazole-3-thiol] |
| AURORA-A |  | Cn1c(SCC(=O)Nc2cccc(O)c2)nnc1-c1ccc(NS(C)(=O)=O)cc1 |
|  | FYN and PDGFRR-α and FLT-3 | COc1ccc(NCc2nnc(SCCN3CCCCC3)n2-c2ccccc2OC)cc1 |
| PDGFRR-α and FYN and GSK3-β |  | CCn1c(CNc2ccc(OC)cc2)nnc1SCC(=O)Nc1ccccc1-c1ccccc1 |
| DAPK1 |  | CC(Sc1nnc(CNc2ccc(Cl)cc2)n1Cc1ccccc1)C(=O)O (stereo not shown) |
| CDK2-cyclinA and CDK1 and AURORA-A |  | NC(=O)CSc1nnc(CNc2cccc(Cl)c2)n1CCc1ccccc1 |
| PDGFRR-α |  | CCc1ccccc1NC(=O)CSc1nnc(COc2ccc(Cl)cc2)n1C |
| CHEK2 |  | Cn1c(SCC(=O)NCc2ccco2)nnc1-c1ccc(NC(=O)c2ccccc2)cc1 |
| GSK3-α |  | COc1cc(C(=O)CSc2nnc(-c3ccc(O)cc3)n2Cc2ccco2)ccc1NC(C)=O |
| FYN |  | CCn1c(Cc2ccccc2)nnc1SCC(=O)N1CCCc2ccccc21 |
| CDK2-cyclinA and CDK1 and CHEK2 |  | CCn1c(CNc2cccc(C(F)(F)F)c2)nnc1SCC(=O)Oc1ccc(C)cc1 |
| GSK3-α |  | CCn1c(CNc2ccc(C)cc2C)nnc1SCC(=O)Nc1ccccc1-c1ccccc1 |
